According to patent publication US20260364213A1, “RADIOLABELED COMPOUNDS OF TRIMETHOPRIM AND USES THEREOF” (THE TRUSTEES OF THE UNIVERSITY OF PENNSYLVANIA, priority 2023, published 2026):
Read-outs that look alike come from different tables or passages of the source.

Columns and labels:
HCT116 eDHFR-Luc cells = experiment: Kill assay (MTT) in HCT116 eDHFR-Luc cells; format: cell-based, human; conditions: 3.7 MBq; for cell growth at day 10: in comparison to blocked conditions
Method: (§1) Following the same uptake protocol till washing after the third wash the cells were counted using cell counter and they were diluted to generate even number of cells/mL. […] We've applied the same blocked conditions used in the uptake assay. […] Then cells will be re-distributed into 96 well plates (2,000 cells/well) with fresh media to monitor cell proliferation by MTT assay on days 1, 3, 7 and 10. A total of 9 wells (3×3) were measured on the plate per sample per time point. To complete the assay cell media was removed and replaced with 50 μL of serum free media and 50 μL of MTT reagent. The plates were covered with tin foil and incubated at 37 °C for 3 hours. The plates were shaken at 200 rpm at 37 °C for 15 min. Using the microplate plate reader, sample absorbance was measured at 590 nm for 600 ms. Controls included [^131I]NaI treated cells and blocking with 10 μM parent TMP (unlabeled). An analogous procedure was used for the OVCAR8-eDHFR-Luc kill assay with different doses (1.85-37 MBq) and treatment times.
Despite lower uptake in HCT116 cells, cell viability was measured on days 1, 3, 7, and 10 using the MTT assay and compared with blocked, no drug and [^131I]I—Na treated cells. […] See, FIG. 3A. […] See, FIG. 3B.

eDHFR [1] = molecular target: T1, eDHFR (Escherichia coli, UniProt P0ABQ4)
T1 sequence (P0ABQ4 1-159): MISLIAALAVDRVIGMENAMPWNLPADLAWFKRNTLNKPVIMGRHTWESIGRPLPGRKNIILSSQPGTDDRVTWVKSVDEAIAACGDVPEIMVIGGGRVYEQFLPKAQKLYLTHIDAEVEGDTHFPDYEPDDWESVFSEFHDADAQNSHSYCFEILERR

OVCAR8-eDHFR-Luc cells = experiment: Kill assay (MTT) in OVCAR8-eDHFR-Luc cells; format: cell-based, human
Method: as §1
To investigate the therapeutic potential of m[^131I]mI-TMP 5b in tumor cell lines, OVCAR8 eDHFR+ cells were exposed to varying doses (ranging from 1.85-37 MBq) of the radiotracer of 5b at different incubation times. Different conditions were employed to assess the selective therapeutic effect of the radio tracer on eDHFR+ cells. To determine the specific killing of eDHFR+ tumor cells, blocked conditions were analyzed. The cell viability of compound 5b-treated cells was also compared with the cells exposed to [^131I]I—Na. Additionally, untreated cells were used as controls. The MTT assay was used to measure the cell viability of the cells under the aforementioned conditions on days 1, 3, 7, and 12.
OVCAR8-eDHFR-Luc+ cells were treated with 1.85 and 18.5 MBq of m[^131I]mI-TMP 5b and [^131I]I—Na, incubated for 1 hour. […] The cell viability of the compound 5b-treated cells was similar to cells under blocked, [^131I]NaI, and no drug conditions. See, FIG. 2A. […] See, FIG. 2B. Based on the results obtained, a continued dose escalation was considered to better understand the therapeutic window. Finally, OVCAR_eDHFR+ cells were tested with 37 MBq dose of m[^131I]mI-TMP.

eDHFR [2] = molecular target: T1, eDHFR; format: cell-based; parameters: in CAR T cells fused to C-terminus of CD3zeta of FAP-CAR; conditions: for uptake in eDHFR+ CAR T cells compared to NTD cells: 0.074 MBq, 60 min at 37 °C, FAP-CAR-eDHFR (DF-BFP), day 8 of T cell expansion, 60 min
Method: Primary human T cells were sourced from healthy volunteers through the Human Immunology Core at the University of Pennsylvania. All specimens were obtained following institutional review board-approved protocols and informed consent from the volunteers. Bulk T cells were activated and expanded following established methods and subsequently, either pTRPE-FAP CAR-eDHFR DF or pTRPE-FAP CAR-eDHFR DF-T2A-BFP (7) lentivirus was introduced to the activated T cells 16 hours post-activation at a multiplicity of infection (MOI) of 5. The T cells were then expanded for a period of 10 days. Transduced CAR T cells were incubated with Alexa Fluor 647 AffiniPure F(ab′2) fragment goat anti-mouse immunoglobulin G (Jackson ImmunoResearch Laboratories) for half an hour at room temperature. Following incubation, stained cells were washed 3*100 μL with FACS buffer (2% bovine serum albumin in PBS, Invitrogen). The washed cells were analyzed using a flow cytometer (LSR II, BD Biosciences) to detect CAR and/or BFP expression. FlowJo software was used to analyze the flow data.
Next, the uptake radio-iodinated probe 5b was evaluated in primary human CAR-T cells. CAR-T cells were engineered to express eDHFR which is fused directly to the C-terminus of the signaling CD3zeta domain of the fibroblast activation protein (FAP) CAR. […] After incubation, the cells were centrifuged at 1200 rpm and were washed thrice with cold PBS (Corning). Subsequently, the cell pellet was resuspended in 1% DMSO/PBS and divided into 3 technical replicates of 100 μL each. The uptake of radiotracer was quantified using a gamma counter (PerkinElmer). The final uptake was expressed as a ratio of % ID normalized per […] cells (% ID/million cells). An about 15 fold more uptake in eDHFR+ cells was observed as compared to NTD cells. See, FIGS. 6A and 6B. The specificity is further assessed by comparing with FAP_CAR_eDHFR(df) which has low eDHFR expression. Less uptake of radiotracer 5b was observed as compared to high expressing eDHFR FAP_CARs.
[^131I]I-TMP in CAR T cells. […] In this case, two different fibroblast activation protein (FAP) CAR T cell constructs that express eDHFR fused directly to the C-terminus of the signaling CD3zeta domain of the CAR were used (7) (FIGS. 13F and 13G). […] There was ~15-fold more uptake in FAP-CAR-eDHFR-DF-BFP in comparison to NTD cells at day 8 of T cell expansion (FIG. 13A).

Structure (SMILES) | cytotoxic effect (HCT116 eDHFR-Luc cells; 2 hours incubation) | cell viability at day 7 (HCT116 eDHFR-Luc cells; 4 hours incubation) | cytotoxic effect (HCT116 eDHFR-Luc cells; 4 hours incubation, compared to blocked cells) | cell growth at day 10 (HCT116 eDHFR-Luc cells; 4 hours incubation) | uptake under blocked conditions (eDHFR [1]; OVCAR8 eDHFR cells preincubated with excess of TMP) | cytotoxic effect / cell viability (OVCAR8-eDHFR-Luc cells; 1.85 MBq, 1 hour) | cell viability under blocked conditions (OVCAR8-eDHFR-Luc cells; 18.5 MBq, 1 h, cells treated with the blocking agent (10 μM TMP)) | cytotoxic effect / cell viability (OVCAR8-eDHFR-Luc cells; 18.5 MBq, 1 h, viability to day 12) | retention in washout study (eDHFR [2]; FAP_CAR_eDHFR cells, after 5 h) | uptake in FAP_CAR_eDHFR(df) with low eDHFR expression (eDHFR [2]; compared to high expressing eDHFR FAP_CARs) | tracer uptake in eDHFR+ cells compared to WT cells (eDHFR [1]; OVCAR8-eDHFR-Luc vs OVCAR8 WT, 0.037 MBq, 1 hour) | cytotoxic effect (OVCAR8-eDHFR-Luc cells; 37 MBq, also with 20 minutes incubation, blocked cells behaved the same) | uptake in eDHFR+ CAR T cells compared to NTD cells (eDHFR [2]) | uptake in eDHFR+ CAR T cells compared to NTD cells (eDHFR [2]; listed as [^131I]I-TMP) | uptake in CAR T cells, earlier day of expansion (eDHFR [2]; earlier day of expansion (day 5))
COc1cc(Cc2cnc(N)nc2N)cc(I)c1OC [[^131I]mI-TMP, 5-(3-iodo-4,5-dimethoxybenzyl)pyrimidine-2,4-diamine] | did not exhibit any cytotoxic effect | did not show any viability on day 7 | demonstrated a cytotoxic effect | mild growth at day 10 | reduced uptake | did not exhibit any cytotoxic effects/decreased viability | comparable viability to those under no treatment or [^131I]I—Na conditions | strong cytotoxic effects, and thus no cell regrowth/significantly lower viability was observed at day 7 and even at day 12 | strong internalization of compound 5b even after 5 h | Less uptake |  |  |  |  | 
COc1cc(Cc2cnc(N)nc2N)cc([131I])c1OC [[^131I]mI-TMP, 5-(3-iodo-4,5-dimethoxybenzyl)pyrimidine-2,4-diamine] |  | no cell regrowth at day 7 |  | mild regrowth was observed at day 10 and beyond |  |  |  |  |  |  | ~ 25 fold | non-specific cell killing | about 15 fold | ~ 15 fold | ~ 3 fold
